pIC50: −log10 of the molar value. Read-outs that look alike come from different tables or passages of the source.
Columns and labels:
Type in all cases: cell-based, human
HTT mRNA = experiment: RT-qPCR splicing assay, HTT canonical (CJ) and alternative (AJ) junction mRNA; details: Homo sapiens; for AC50: read-out: HTT AJ (AC50, increase in AJ mRNA)
Method in brief: (§1)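 A673 or K562 cells were treated 24 h at 37 °C with an 11-point 3-fold compound dilution series, top dose 10 uM final, DMSO ≤0.25%. Lysates went to one-step RT-qPCR for canonical (CJ) and alternative-exon (AJ) junctions; ΔCt vs GAPDH, GUSB or PPIA, normalized to DMSO, as 2^(-ΔΔCt).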

MYB mRNA = experiment: RT-qPCR splicing assay, MYB canonical (CJ) and alternative (AJ) junction mRNA; details: Homo sapiens; for AC50: read-out: MYB AJ (AC50, increase in AJ mRNA)
Method in brief: as §1

SMN2 mRNA = experiment: RT-qPCR splicing assay panel, SMN2 canonical junction (CJ) mRNA; details: Homo sapiens
Method in brief: as §1

Target C mRNA = experiment: RT-qPCR splicing assay panel, Target C canonical junction (CJ) mRNA; details: Homo sapiens
Method in brief: as §1

[1] = 24 h, Table 3A, A673 or K562 cells, 24 h treatment
[2] = 24 h, Table 3A, A673 or K562 cells, 24 h treatment, read-out: HTT CJ (IC50, decrease in CJ mRNA)
[3] = canonical junction (CJ) mRNA, RT-qPCR panel, Table 4A, read-out: HTT, decrease in CJ mRNA levels, IC50
[4] = 24 h, Table 3A, A673 or K562 cells, 24 h treatment, read-out: MYB CJ (IC50, decrease in CJ mRNA)
[5] = canonical junction (CJ) mRNA, RT-qPCR panel, Table 4A, read-out: MYB, decrease in CJ mRNA levels, IC50
[6] = canonical junction (CJ) mRNA, RT-qPCR panel, Table 4A, read-out: SMN2, decrease in CJ mRNA levels, IC50
[7] = canonical junction (CJ) mRNA, RT-qPCR panel, Table 4A, read-out: Target C, decrease in CJ mRNA levels, IC50
[8] = 24 h, Table 3B, A673 or K562 cells, 24 h treatment

## COc1cc(-c2cc(O)c(-c3ccc(N4CCC(NCC5CC5)C4)nn3)cc2F)ncn1 (stereo not shown) [Compound 417]
HTT mRNA; [1]
  AC50: 1 to 10 µM
HTT mRNA; [2]
  pIC50: 5.00 to 6.00
HTT mRNA; [3]
  pIC50: 5.00 to 6.00
MYB mRNA; [1]
  AC50: 1 to 10 µM
MYB mRNA; [4]
  pIC50: < 5.00
MYB mRNA; [5]
  pIC50: < 5.00
SMN2 mRNA; [6]
  pIC50: 5.00 to 6.00
Target C mRNA; [7]
  pIC50: < 5.00

## Cc1nnc(-c2ccc(-c3ccc(N4CC[C@H](NCC5CC5)C4)nn3)c(O)c2)s1 [Compound 414]
HTT mRNA; [1]
  AC50: 0.1 to 1 µM
HTT mRNA; [2]
  pIC50: > 7.00
HTT mRNA; [3]
  pIC50: > 7.00
MYB mRNA; [1]
  AC50: 0.1 to 1 µM
MYB mRNA; [4]
  pIC50: 6.00 to 7.00
MYB mRNA; [5]
  pIC50: 6.00 to 7.00
SMN2 mRNA; [6]
  pIC50: > 7.00
Target C mRNA; [7]
  pIC50: 6.00 to 7.00

## Cc1ncc(-c2ccc(-c3ccc(N4CCC(NC5CCC5)C4)nn3)c(O)c2)o1 (stereo not shown) [Compound 347, 2-{6-[3-(cyclobutylamino)pyrrolidin-1-yl]pyridazin-3-yl}-5-(2-methyl-1,3-oxazol-5-yl)phenol]
HTT mRNA; [1]
  AC50: 0.1 to 1 µM
HTT mRNA; [2]
  pIC50: 6.00 to 7.00
HTT mRNA; [3]
  pIC50: 6.00 to 7.00
MYB mRNA; [1]
  AC50: 0.1 to 1 µM
MYB mRNA; [4]
  pIC50: 6.00 to 7.00
MYB mRNA; [5]
  pIC50: 6.00 to 7.00
SMN2 mRNA; [6]
  pIC50: > 7.00
Target C mRNA; [7]
  pIC50: 6.00 to 7.00

## Cc1ncc(-c2ccc(-c3ccc(N4CC[C@@](C)(NCC5CC5)C4)nn3)c(O)c2)s1 (single isomer, unassigned) [Compound 439]
HTT mRNA; [1]
  AC50: < 0.1 µM
HTT mRNA; [2]
  pIC50: > 7.00
HTT mRNA; [3]
  pIC50: > 7.00
MYB mRNA; [1]
  AC50: 0.1 to 1 µM
MYB mRNA; [4]
  pIC50: 6.00 to 7.00
MYB mRNA; [5]
  pIC50: 6.00 to 7.00
SMN2 mRNA; [6]
  pIC50: > 7.00
Target C mRNA; [7]
  pIC50: > 7.00

## COc1cc(-c2cc(O)c(-c3cnc(N4CC[C@H](NC5CCC5)C4)nn3)cc2F)cnn1 [Compound 321, 2-{3-[(3S)-3-(cyclobutylamino)pyrrolidin-1-yl]-1,2,4-triazin-6-yl}-4-fluoro-5-(6-methoxypyridazin-4-yl)phenol]
HTT mRNA; [1]
  AC50: 0.1 to 1 µM
HTT mRNA; [2]
  pIC50: 6.00 to 7.00
HTT mRNA; [3]
  pIC50: 6.00 to 7.00
MYB mRNA; [1]
  AC50: 1 to 10 µM
MYB mRNA; [4]
  pIC50: 5.00 to 6.00
MYB mRNA; [5]
  pIC50: 5.00 to 6.00
SMN2 mRNA; [6]
  pIC50: 6.00 to 7.00
Target C mRNA; [7]
  pIC50: 6.00 to 7.00

## Cc1ccc2cc(-c3ccc(N4CCC(NC(C)(C)C)C4)nn3)c(O)cc2n1 (stereo not shown) [Compound 817]
HTT mRNA; [8]
  AC50: > 10 µM
HTT mRNA; 24 h, Table 3B, A673 or K562 cells, 24 h treatment, read-out: HTT CJ (IC50, decrease in CJ mRNA)
  pIC50: < 5.00
HTT mRNA; Table 4B, gene panel, read-out: HTT (IC50, decrease in CJ mRNA levels)
  pIC50: < 5.00
MYB mRNA; [8]
  AC50: > 10 µM
MYB mRNA; 24 h, Table 3B, A673 or K562 cells, 24 h treatment, read-out: MYB CJ (IC50, decrease in CJ mRNA)
  pIC50: < 5.00
MYB mRNA; Table 4B, gene panel, read-out: MYB (IC50, decrease in CJ mRNA levels)
  pIC50: < 5.00
SMN2 mRNA; Table 4B, gene panel, read-out: SMN2 (IC50, decrease in CJ mRNA levels)
  pIC50: 5.00 to 6.00
Target C mRNA; Table 4B, gene panel, read-out: Target C (IC50, decrease in CJ mRNA levels)
  pIC50: < 5.00

## COc1cc(-c2ccc(-c3ccc(N4CCC(N[C@H]5C[C@@H](OC)C5)C4)nn3)c(O)c2)cnn1 (stereo partly shown) [Compound 404, 5-(6-methoxypyridazin-4-yl)-2-[6-(3-{[(1s,3s)-3-methoxycyclobutyl]amino}pyrrolidin-1-yl)pyridazin-3-yl]phenol]
HTT mRNA; [1]
  AC50: 0.1 to 1 µM
HTT mRNA; [2]
  pIC50: > 7.00
HTT mRNA; [3]
  pIC50: > 7.00
MYB mRNA; [1]
  AC50: 1 to 10 µM
MYB mRNA; [4]
  pIC50: 6.00 to 7.00
MYB mRNA; [5]
  pIC50: 6.00 to 7.00
SMN2 mRNA; [6]
  pIC50: > 7.00
Target C mRNA; [7]
  pIC50: 6.00 to 7.00

## Cc1ncc(-c2cc(O)c(-c3ccc(N4CC[C@H](NCC5CC5)C4)nn3)cc2F)s1 [Compound 393]
HTT mRNA; [1]
  AC50: < 0.1 µM
HTT mRNA; [2]
  pIC50: > 7.00
HTT mRNA; [3]
  pIC50: > 7.00
MYB mRNA; [1]
  AC50: < 0.1 µM
MYB mRNA; [4]
  pIC50: > 7.00
MYB mRNA; [5]
  pIC50: > 7.00
SMN2 mRNA; [6]
  pIC50: > 7.00
Target C mRNA; [7]
  pIC50: > 7.00

## Cc1ncc(-c2ccc(-c3ccc(N4CC[C@@](C)(NC5CCC5)C4)nn3)c(O)c2)s1 [Compound 356]
HTT mRNA; [1]
  AC50: < 0.1 µM
HTT mRNA; [2]
  pIC50: > 7.00
HTT mRNA; [3]
  pIC50: > 7.00
MYB mRNA; [1]
  AC50: 0.1 to 1 µM
MYB mRNA; [4]
  pIC50: 6.00 to 7.00
MYB mRNA; [5]
  pIC50: 6.00 to 7.00
SMN2 mRNA; [6]
  pIC50: > 7.00
Target C mRNA; [7]
  pIC50: 6.00 to 7.00

## Cn1ccc(-c2ccc(-c3ccc(N4CCC(NC5CCC5)C4)nn3)c(O)c2)nc1=O (stereo not shown) [Compound 306]
HTT mRNA; [1]
  AC50: 1 to 10 µM
HTT mRNA; [2]
  pIC50: 5.00 to 6.00
HTT mRNA; [3]
  pIC50: 5.00 to 6.00
MYB mRNA; [1]
  AC50: 1 to 10 µM
MYB mRNA; [4]
  pIC50: 5.00 to 6.00
MYB mRNA; [5]
  pIC50: 5.00 to 6.00
SMN2 mRNA; [6]
  pIC50: 6.00 to 7.00
Target C mRNA; [7]
  pIC50: 5.00 to 6.00

## Cc1nc(C)c(-c2cc(O)c(-c3ccc(N4CC[C@@H](NC5CCC5)C4)nn3)cc2F)s1 [Compound 387]
HTT mRNA; [1]
  AC50: 1 to 10 µM
HTT mRNA; [2]
  pIC50: 6.00 to 7.00
HTT mRNA; [3]
  pIC50: 6.00 to 7.00
MYB mRNA; [1]
  AC50: 1 to 10 µM
MYB mRNA; [4]
  pIC50: 5.00 to 6.00
MYB mRNA; [5]
  pIC50: 5.00 to 6.00
SMN2 mRNA; [6]
  pIC50: 6.00 to 7.00
Target C mRNA; [7]
  pIC50: 5.00 to 6.00

From US20250333397A1 (REMIX THERAPEUTICS INC., priority 2021, published 2025)
